From patent EP1407768A2, “The potassium channel opener retigabine for the treatment of diseases” (GLAXO GROUP LIMITED, priority 1999, dated 2001)
Like-named read-outs stand apart in the source and are kept apart here.

How the values were obtained:
[1] = system: pentylene tetrazol-induced seizures in rats; details: protection against pentylene tetrazol-induced seizures in rats; cited from earlier work
KCNQ2 = molecular target: T1, KCNQ2 (Homo sapiens, UniProt O43526); assay: Voltage-clamp of Xenopus oocytes expressing KCNQ2 alone (pSP64t vector); assay type: cell-based; details: 10µM retigabine
T1 construct: expressed in transfected cells; host or cells: Xenopus oocytes, expression vector pSP64t

[2] = molecular target: T2, KCNQ2/3 potassium channel (Homo sapiens, UniProt O43525+O43526); assay: Current clamp of oocytes expressing KCNQ2 plus KCNQ3: hyperpolarisation of the cell; assay type: cell-based
T2 construct: expressed in transfected cells; host or cells: Xenopus laevis oocytes injected with capped cRNA (KCNQ2 in pCIN3, KCNQ3 in pCIH6)

[3] = molecular target: T2, KCNQ2/3 potassium channel; assay: Two-microelectrode voltage-clamp of Xenopus oocytes expressing equimolar KCNQ2 plus KCNQ3; assay type: cell-based; details: for fold induction at 10 µM: read-out: increase of outward KCNQ current amplitude, 10µM retigabine; for increase of the rate of current activation: data fitted to a single exponential
Text: Human KCNQ2 and KCNQ3 potassium channels were cloned from a human brain CDNA library using standard methodology. All clones were sequenced and were identical to those reported in the literature (Charlier, C., Singh, N.A., Ryan, S.G., Lewis, T.B., Reus, B. E., Leach, R.J. Leppert, M. (1998). A pore mutation in a novel KQT-like potassium channel gene in an idiopathic epilepsy family. Nature Genetics 18: 53-55 and Singh, N.A., Charlier, C., Stauffer, D., DuPont, B.R., Leach, R.J., Melis, R., Ronen, G.M., Bjerre, I., Quattlebaum, T., Murphy, J.V., McHarg, M.L., Gagnon, D., Rosales, T.O., Peiffer, A., Anderson, E & Leppert, M. (1998) Nature Genetics, 18: 25-29).
Adult female Xenopus laevis (Blades Biologicals) were anaesthetised using 0.2% tricaine (3-aminobenzoic acid ethyl ester), killed and the ovaries rapidly removed. Oocytes were de-folliculated by collagenase digestion (Sigma type I, 1.5 mg ml^-1) in divalent cation-free OR2 solution (82.5mM NaCl, 2.5mM KCI, 1.2mM NaH2PO4, 5mM HEPES; pH 7.5 at 25°C). Single stage V and VI oocytes were transferred to ND96 solution (96mM NaCl, 2mM KCI, 1mM MgCl2, 1.8mM CaCl2, 5mM HEPES; pH 7.5 at 25°C) which contained 50µg ml^- ^1 gentamycin and stored at 18°C.
KCNQ2 (in pCIN3 vector) and KCNQ3 (in pCIH6) were linearised and transcribed to RNA using T7 or T3 polymerase (Promega Wizard kit). m'G(5')pp(5')GTP capped cRNA was injected into oocytes (20-50nl of 1µgµl^-1 RNA per oocyte) and whole-cell currents were recorded using two-microelectrode voltage-clamp (Geneclamp amplifier, Axon instruments Inc.) 3 to 5 days post-RNA injection. […] In all experiments oocytes were voltage-clamped at a holding potential of -90mV in ND96 solution (superfused at 2ml per min.) and test compounds were applied by addition to this extracellular solution. Current-voltage curves were constructed by applying 800ms voltage-clamp pulses from the holding potential of -90mV to test potentials between -85mV and +30mV..
Whole-cell currents were recorded from oocytes expressing KCNQ2 alone, KCNQ3 alone and an equimolar combination of KCNQ2 plus KCNQ3. Mean current amplitude (at +20mV) was 152 +/- 21 nA for KCNQ2 alone, 157 +/-19nA for KCNQ3 alone and 1467 +/- 420nA for KCNQ2 & KCNQ3. Further characterisation of the KCNQ2/KCNQ3 heteromeric channel (current-voltage curve, conductance plot, linopirdine block) gave similar results to those reported in the literature (Yang, W.-P., Levesque, P.C., Little, W.A., Conder, M.L., Ramakrishnan, P., Neubauer, M.G. & Blanar, M.A, (1998) Functional expression of two KvLQT1-related potassium channels responsible for an inherited idiopathic epilepsy. J. Biol. Chem., 31: 19419-19423 and Wang, H.-S., Pan, Z., Shi, W., Brown, B.S.,. Wymore, R.S., Cohen, I.S., Dixon, J.E. & McKinnon, D (1998) KCNQ2 and KCNQ3 potassium channel subunits: molecular correlates of the M-channel. Science 282: 1890-1893).
The effects of retigabine were studied in oocytes expressing equimolar KCNQ2 plus KCNQ3. Application of 10µM retigabine led to a pronounced 20mV hyperpolarising shift in the threshold for KCNQ current activation (n=5), such that an augmentation of KCNQ current was seen over the normal physiological range of membrane potentials. For example, at a test potential of -60mV, outward KCNQ current amplitude increased 8-fold in the presence of retigabine (6.2-fold at -70mV; 7.1-fold at -50mV; n=5). These changes in KCNQ current amplitude were associated with an increase in the rate of current activation: Retigabine increased the rate of current activation 15-fold at a test potential of -40mV, and 3-fold at a test potential of -30mV (data fitted to a single exponential in each case).
Application of retigabine led to a marked alteration in the properties of the KCNQ2/3 tail currents. In these experiments the voltage clamp protocols comprised a 1s prepulse from -100mV to +40mV to fully activate the KCNQ2/3 channel, followed by a 6s pulse to test potentials between -30mV and -110mV.

[4] = system: carageenan model of inflammatory pain; assay: Carageenan model of inflammatory pain; assay type: in vivo
Text: Br. J. Pharmacol. 120: P78).

T2 sequence (O43526 1-844 isoform O43526-3): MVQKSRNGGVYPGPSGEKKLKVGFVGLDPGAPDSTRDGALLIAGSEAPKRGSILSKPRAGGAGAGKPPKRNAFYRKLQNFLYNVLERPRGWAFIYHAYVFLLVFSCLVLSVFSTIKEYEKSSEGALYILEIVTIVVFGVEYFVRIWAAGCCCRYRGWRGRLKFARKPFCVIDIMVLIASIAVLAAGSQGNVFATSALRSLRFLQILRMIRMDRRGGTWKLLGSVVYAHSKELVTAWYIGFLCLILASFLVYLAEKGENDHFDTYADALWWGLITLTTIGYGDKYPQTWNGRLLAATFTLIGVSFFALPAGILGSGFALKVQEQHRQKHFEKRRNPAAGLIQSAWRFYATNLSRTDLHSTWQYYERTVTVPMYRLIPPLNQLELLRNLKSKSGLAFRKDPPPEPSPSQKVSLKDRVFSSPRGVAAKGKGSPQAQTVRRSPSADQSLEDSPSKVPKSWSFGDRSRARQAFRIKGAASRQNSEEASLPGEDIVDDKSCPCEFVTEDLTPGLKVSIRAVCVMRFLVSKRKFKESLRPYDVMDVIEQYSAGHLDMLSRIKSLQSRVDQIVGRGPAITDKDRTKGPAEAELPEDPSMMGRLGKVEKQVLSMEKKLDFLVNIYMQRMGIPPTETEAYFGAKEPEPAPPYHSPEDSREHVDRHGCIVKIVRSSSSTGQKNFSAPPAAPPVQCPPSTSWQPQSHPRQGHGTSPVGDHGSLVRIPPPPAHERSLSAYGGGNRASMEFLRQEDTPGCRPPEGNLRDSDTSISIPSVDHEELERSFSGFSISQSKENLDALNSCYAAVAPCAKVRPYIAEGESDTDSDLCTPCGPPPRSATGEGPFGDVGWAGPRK
T2 sequence (O43525 whole entry): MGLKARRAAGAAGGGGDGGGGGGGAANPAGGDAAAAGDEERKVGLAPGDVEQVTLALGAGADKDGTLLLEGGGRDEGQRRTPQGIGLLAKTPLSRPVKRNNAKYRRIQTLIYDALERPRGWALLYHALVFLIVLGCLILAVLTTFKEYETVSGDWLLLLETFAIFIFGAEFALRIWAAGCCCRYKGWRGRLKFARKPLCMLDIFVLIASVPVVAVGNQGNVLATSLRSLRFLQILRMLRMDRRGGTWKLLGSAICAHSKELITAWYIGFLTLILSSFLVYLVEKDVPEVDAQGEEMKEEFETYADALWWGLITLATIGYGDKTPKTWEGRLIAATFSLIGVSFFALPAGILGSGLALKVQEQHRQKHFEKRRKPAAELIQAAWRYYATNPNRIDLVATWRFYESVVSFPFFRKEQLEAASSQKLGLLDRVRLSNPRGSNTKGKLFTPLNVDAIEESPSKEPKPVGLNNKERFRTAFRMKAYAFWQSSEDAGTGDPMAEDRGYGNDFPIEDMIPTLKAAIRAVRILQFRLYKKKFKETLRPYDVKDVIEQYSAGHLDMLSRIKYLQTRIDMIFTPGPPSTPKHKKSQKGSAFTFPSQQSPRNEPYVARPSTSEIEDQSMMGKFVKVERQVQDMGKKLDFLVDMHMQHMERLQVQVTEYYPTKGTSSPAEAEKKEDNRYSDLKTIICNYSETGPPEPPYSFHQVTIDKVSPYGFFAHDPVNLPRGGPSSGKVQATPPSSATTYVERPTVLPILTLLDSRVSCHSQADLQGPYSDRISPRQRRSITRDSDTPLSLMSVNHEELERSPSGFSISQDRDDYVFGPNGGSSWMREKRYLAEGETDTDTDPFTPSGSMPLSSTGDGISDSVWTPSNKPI
T1 sequence (O43526 1-844 isoform O43526-3): as the sequence (O43526 1-844 isoform O43526-3) above

CCOC(=O)Nc1ccc(NCc2ccc(F)cc2)cc1N [retigabine, 2-amino-4-(4-fluorobenzylamino)-1-ethoxycarbonylaminobenzene]
ED50 [1]: 6.2 mg/kg
mean delay (rate of current activation) (KCNQ2; at -40mV, control 132+/-16ms): 75 ± 7 ms
KCNQ current amplitude (KCNQ2; at -50mV, n=7, control = 145+/-34nA): 501+/-116 nA
hyperpolarising shift in the threshold for KCNQ2 current activation (KCNQ2; oocytes expressing KCNQ2 alone): 20 mV
EC50 [2]: 5.2 µM
Hill slope ([2]; hyperpolarisation of oocytes held under current clamp): 1.1 ± 0.1
hyperpolarising shift in the threshold for KCNQ current activation ([3]; 10µM retigabine, oocytes expressing equimolar KCNQ2 plus KCNQ3, n=5): 20 mV
fold induction at 10 µM ([3]; test potential -50mV, n=5): 7.1
fold induction at 10 µM ([3]; test potential -60mV, n=5): 8
fold induction at 10 µM ([3]; test potential -70mV, n=5): 6.2
increase of the rate of current activation ([3]; test potential -30mV): 3 fold
increase of the rate of current activation ([3]; test potential -40mV): 15 fold
KCNQ2/3 tail current deactivation ([3]; test potentials -30mV, -40mV after 1s prepulse from -100mV to +40mV): deactivation does not occur
rate of KCNQ2/3 channel deactivation in comparison to control ([3]; test potentials -50mV to -110mV after 1s prepulse from -100mV to +40mV): significantly slowed
ED50 [4]: 4.5 mg/kg
